Measurements taken from the NIST ThermoML archive (doi:10.1016/j.jct.2015.08.002).
Numbers after ± are expanded uncertainties.

Assay: mn = molality of the nth substance listed, in mol/kg
Settings: 298 K, Wilhelmi plate tensiometer

With `CCCCCCCCCCCC(=O)[O-].[Na+]` [sodium dodecanoate] + O the surface tension liquid-gas (m1 = 0.001) was 64.1 ± 2 mN/m, the surface tension liquid-gas (m1 = 0.002) was 62.2 ± 2 mN/m and the surface tension liquid-gas (m1 = 0.003) was 57.6 ± 2 mN/m. For the same compound, the surface tension liquid-gas (m1 = 0.004) was 54.4 ± 2 mN/m, the surface tension liquid-gas (m1 = 0.005) was 54.5 ± 2 mN/m and the surface tension liquid-gas (m1 = 0.006) was 49.9 ± 2 mN/m. It also gave a surface tension liquid-gas (m1 = 0.007) of 45.8 ± 2 mN/m, a surface tension liquid-gas (m1 = 0.008) of 44.9 ± 2 mN/m and a surface tension liquid-gas (m1 = 0.009) of 44 ± 2 mN/m. It also gave a surface tension liquid-gas (m1 = 0.01) of 44.2 ± 2 mN/m, a surface tension liquid-gas (m1 = 0.0105) of 41.7 ± 2 mN/m and a surface tension liquid-gas (m1 = 0.011) of 41.6 ± 2 mN/m. It also gave a surface tension liquid-gas (m1 = 0.012) of 40.9 ± 2 mN/m, a surface tension liquid-gas (m1 = 0.013) of 37.4 ± 2 mN/m and a surface tension liquid-gas (m1 = 0.014) of 37.3 ± 2 mN/m. It also gave a surface tension liquid-gas (m1 = 0.015) of 37.9 ± 2 mN/m.

`CCCCCCCCCCCCP(=O)([O-])[O-].[Na+].[Na+]` [sodium dodecylphosphonate] + O gave a surface tension liquid-gas (m1 = 0.002) of 66.6 ± 2 mN/m, a surface tension liquid-gas (m1 = 0.004) of 58.5 ± 2 mN/m and a surface tension liquid-gas (m1 = 0.006) of 52.9 ± 2 mN/m. For the same compound, the surface tension liquid-gas (m1 = 0.008) was 53.5 ± 2 mN/m, the surface tension liquid-gas (m1 = 0.01) was 52.4 ± 2 mN/m and the surface tension liquid-gas (m1 = 0.012) was 49.6 ± 2 mN/m. It also gave a surface tension liquid-gas (m1 = 0.014) of 47.4 ± 2 mN/m, a surface tension liquid-gas (m1 = 0.016) of 44.4 ± 2 mN/m and a surface tension liquid-gas (m1 = 0.017) of 44 ± 2 mN/m. It also gave a surface tension liquid-gas (m1 = 0.0175) of 40.9 ± 2 mN/m, a surface tension liquid-gas (m1 = 0.018) of 40.1 ± 2 mN/m and a surface tension liquid-gas (m1 = 0.0185) of 39.4 ± 2 mN/m. It also gave a surface tension liquid-gas (m1 = 0.019) of 40.4 ± 2 mN/m, a surface tension liquid-gas (m1 = 0.02) of 39.3 ± 2 mN/m and a surface tension liquid-gas (m1 = 0.021) of 39.6 ± 2 mN/m. It also gave a surface tension liquid-gas (m1 = 0.025) of 38.2 ± 2 mN/m, a surface tension liquid-gas (m1 = 0.04) of 36.9 ± 2 mN/m and a surface tension liquid-gas (m1 = 0.05) of 39.3 ± 2 mN/m.

Compound `CCCCCCCC/C=C\CCCCCCCC(=O)[O-].[Na+]` [sodium oleate] + O has a surface tension liquid-gas (m1 = 5e-06) of 62.8 ± 2 mN/m, a surface tension liquid-gas (m1 = 1e-05) of 58 ± 2 mN/m and a surface tension liquid-gas (m1 = 2e-05) of 51.8 ± 2 mN/m. It also gave a surface tension liquid-gas (m1 = 3e-05) of 51.2 ± 2 mN/m, a surface tension liquid-gas (m1 = 4e-05) of 50.7 ± 2 mN/m and a surface tension liquid-gas (m1 = 5e-05) of 49.9 ± 2 mN/m. It also gave a surface tension liquid-gas (m1 = 0.0001) of 42 ± 2 mN/m, a surface tension liquid-gas (m1 = 0.0003) of 32.9 ± 2 mN/m and a surface tension liquid-gas (m1 = 0.0005) of 29.4 ± 2 mN/m. The surface tension liquid-gas (m1 = 0.0009) was 26.6 ± 2 mN/m, the surface tension liquid-gas (m1 = 0.0013) was 25.6 ± 2 mN/m and the surface tension liquid-gas (m1 = 0.0015) was 25.4 ± 2 mN/m. The surface tension liquid-gas (m1 = 0.0018) was 25.1 ± 2 mN/m, the surface tension liquid-gas (m1 = 0.002) was 25.2 ± 2 mN/m and the surface tension liquid-gas (m1 = 0.003) was 25.1 ± 2 mN/m.
